In ChEMBL document CHEMBL5212743, “Selectivity Literature for EUbOPEN Chemogenomics Library wave 3” (2023):
Values belong to the molecule of their own block, whether it stands above or below them.

Columns and labels:
[1] = biological target: Phosphatidylinositol 4,5-bisphosphate 3-kinase catalytic subunit gamma isoform (Homo sapiens, UniProt P48736); assay: Selectivity interaction (KinomeScan (DiscoverX)) EUB0000178b PIK3CG; conditions: at 1 µM
[2] = biological target: T1, Phosphatidylinositol 5-phosphate 4-kinase type-2 gamma (Homo sapiens) (UniProt Q8TBX8); assay: Selectivity interaction (KinomeScan (DiscoverX)) EUB0000178b PIP4K2C; conditions: at 1 µM
T1 sequence (whole entry): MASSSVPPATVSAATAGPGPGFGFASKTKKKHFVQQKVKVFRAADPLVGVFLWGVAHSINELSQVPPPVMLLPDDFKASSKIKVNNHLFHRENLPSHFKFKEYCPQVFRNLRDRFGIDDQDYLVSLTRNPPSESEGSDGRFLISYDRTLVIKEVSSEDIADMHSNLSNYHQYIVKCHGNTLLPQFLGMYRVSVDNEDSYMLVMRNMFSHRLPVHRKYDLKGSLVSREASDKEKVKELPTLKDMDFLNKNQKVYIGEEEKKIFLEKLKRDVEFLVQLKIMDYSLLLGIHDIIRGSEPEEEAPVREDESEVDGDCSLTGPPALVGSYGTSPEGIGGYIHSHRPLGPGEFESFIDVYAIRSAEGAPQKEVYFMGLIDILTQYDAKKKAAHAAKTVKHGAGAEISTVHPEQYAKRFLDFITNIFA

[3] = biological target: Mitogen-activated protein kinase kinase kinase 3 (Homo sapiens) (UniProt Q99759); assay: Selectivity interaction (KinomeScan (DiscoverX)) EUB0000178b MAP3K3; conditions: at 1 µM
Chain of Mitogen-activated protein kinase kinase kinase 3 (Homo sapiens) (Q99759 whole entry): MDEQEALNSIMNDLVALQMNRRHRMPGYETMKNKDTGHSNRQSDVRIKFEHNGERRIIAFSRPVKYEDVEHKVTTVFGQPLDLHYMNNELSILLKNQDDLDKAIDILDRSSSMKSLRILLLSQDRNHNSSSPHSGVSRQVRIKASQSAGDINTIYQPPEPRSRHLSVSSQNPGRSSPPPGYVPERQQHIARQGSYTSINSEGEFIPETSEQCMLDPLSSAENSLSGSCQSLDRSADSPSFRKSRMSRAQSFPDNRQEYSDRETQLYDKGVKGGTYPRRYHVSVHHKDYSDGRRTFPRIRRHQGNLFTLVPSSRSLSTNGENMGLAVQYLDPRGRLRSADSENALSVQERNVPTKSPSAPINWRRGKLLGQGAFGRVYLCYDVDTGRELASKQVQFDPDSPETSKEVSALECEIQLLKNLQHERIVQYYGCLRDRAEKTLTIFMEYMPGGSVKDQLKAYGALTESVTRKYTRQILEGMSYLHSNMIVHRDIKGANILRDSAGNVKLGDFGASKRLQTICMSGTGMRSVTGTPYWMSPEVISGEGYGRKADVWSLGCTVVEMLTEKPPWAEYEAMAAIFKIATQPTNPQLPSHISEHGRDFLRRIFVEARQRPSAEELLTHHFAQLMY

[4] = biological target: Receptor-type tyrosine-protein kinase FLT3 (Homo sapiens) (UniProt P36888); conditions: at 1 µM
[5] = tested on: Mast/stem cell growth factor receptor Kit (Homo sapiens), P10721 [D816V]; assay: Selectivity interaction (KinomeScan (DiscoverX)) EUB0000698a KIT; conditions: at 10 µM
Chain of Mast/stem cell growth factor receptor Kit (Homo sapiens), P10721 [D816V] (P10721 whole entry D816V, canonical isoform): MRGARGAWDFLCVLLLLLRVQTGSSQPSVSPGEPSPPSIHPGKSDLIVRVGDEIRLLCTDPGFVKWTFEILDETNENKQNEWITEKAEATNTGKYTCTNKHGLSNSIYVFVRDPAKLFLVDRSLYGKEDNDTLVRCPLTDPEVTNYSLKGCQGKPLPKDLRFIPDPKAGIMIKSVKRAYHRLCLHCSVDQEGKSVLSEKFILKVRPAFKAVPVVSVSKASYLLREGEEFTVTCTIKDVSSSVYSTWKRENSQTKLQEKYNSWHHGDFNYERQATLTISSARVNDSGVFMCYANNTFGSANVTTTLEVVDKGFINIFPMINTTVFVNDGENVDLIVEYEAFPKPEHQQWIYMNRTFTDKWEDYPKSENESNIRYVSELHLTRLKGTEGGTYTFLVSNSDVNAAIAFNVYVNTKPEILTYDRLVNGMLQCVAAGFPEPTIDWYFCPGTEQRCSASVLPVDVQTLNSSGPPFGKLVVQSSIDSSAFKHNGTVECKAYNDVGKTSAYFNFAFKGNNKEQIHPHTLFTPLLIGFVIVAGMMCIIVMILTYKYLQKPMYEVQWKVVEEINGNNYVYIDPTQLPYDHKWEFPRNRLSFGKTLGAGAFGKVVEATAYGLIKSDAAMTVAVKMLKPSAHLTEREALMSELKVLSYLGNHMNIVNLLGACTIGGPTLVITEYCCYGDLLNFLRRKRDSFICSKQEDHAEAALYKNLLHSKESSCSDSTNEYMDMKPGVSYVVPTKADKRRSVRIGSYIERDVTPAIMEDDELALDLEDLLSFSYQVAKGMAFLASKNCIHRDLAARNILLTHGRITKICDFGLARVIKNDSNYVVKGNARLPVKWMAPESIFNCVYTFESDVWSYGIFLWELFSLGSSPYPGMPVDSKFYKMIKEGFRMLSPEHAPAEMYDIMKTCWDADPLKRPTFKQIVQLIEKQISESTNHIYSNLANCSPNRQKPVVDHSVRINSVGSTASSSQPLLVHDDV

[6] = biological target: Phosphorylase b kinase regulatory subunit alpha, liver isoform (Homo sapiens) (UniProt P46019); assay: Selectivity interaction (Kinase panel (University of Dundee)) EUB0000169b PHKA2; conditions: at 10 µM
[7] = biological target: Serine/threonine-protein kinase PLK3 (Homo sapiens, UniProt Q9H4B4); assay: Selectivity interaction (KinomeScan (DiscoverX)) EUB0000169b PLK3; conditions: at 1 µM
Chain of Serine/threonine-protein kinase PLK3 (Q9H4B4 whole entry, looked up): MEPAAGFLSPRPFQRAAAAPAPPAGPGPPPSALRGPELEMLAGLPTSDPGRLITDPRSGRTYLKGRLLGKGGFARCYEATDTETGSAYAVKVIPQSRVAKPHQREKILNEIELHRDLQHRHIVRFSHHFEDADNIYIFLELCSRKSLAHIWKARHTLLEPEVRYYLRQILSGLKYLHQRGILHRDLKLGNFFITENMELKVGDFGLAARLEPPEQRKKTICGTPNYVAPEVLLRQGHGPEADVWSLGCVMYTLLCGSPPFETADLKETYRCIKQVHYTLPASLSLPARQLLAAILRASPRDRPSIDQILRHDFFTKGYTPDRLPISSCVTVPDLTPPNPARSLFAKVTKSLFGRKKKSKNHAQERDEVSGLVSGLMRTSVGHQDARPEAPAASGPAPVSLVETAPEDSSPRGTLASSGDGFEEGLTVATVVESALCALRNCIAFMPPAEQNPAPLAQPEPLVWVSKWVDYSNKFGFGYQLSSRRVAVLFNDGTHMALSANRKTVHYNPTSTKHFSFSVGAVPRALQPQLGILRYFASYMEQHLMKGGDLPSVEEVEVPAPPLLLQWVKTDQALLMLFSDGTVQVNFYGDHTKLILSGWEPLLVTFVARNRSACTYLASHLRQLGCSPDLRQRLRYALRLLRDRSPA

Aurora kinase B = Aurora kinase B (Homo sapiens, UniProt Q96GD4); assay: Selectivity interaction (KinomeScan (DiscoverX)) EUB0000702a AURKB; conditions: at 1 µM
[8] = biological target: Mitogen-activated protein kinase kinase kinase 19 (Homo sapiens, UniProt Q56UN5); assay: Selectivity interaction (KinomeScan (DiscoverX, competition-binding assay)) EUB0000305b MAP3K19
Chain of Mitogen-activated protein kinase kinase kinase 19 (Q56UN5 whole entry): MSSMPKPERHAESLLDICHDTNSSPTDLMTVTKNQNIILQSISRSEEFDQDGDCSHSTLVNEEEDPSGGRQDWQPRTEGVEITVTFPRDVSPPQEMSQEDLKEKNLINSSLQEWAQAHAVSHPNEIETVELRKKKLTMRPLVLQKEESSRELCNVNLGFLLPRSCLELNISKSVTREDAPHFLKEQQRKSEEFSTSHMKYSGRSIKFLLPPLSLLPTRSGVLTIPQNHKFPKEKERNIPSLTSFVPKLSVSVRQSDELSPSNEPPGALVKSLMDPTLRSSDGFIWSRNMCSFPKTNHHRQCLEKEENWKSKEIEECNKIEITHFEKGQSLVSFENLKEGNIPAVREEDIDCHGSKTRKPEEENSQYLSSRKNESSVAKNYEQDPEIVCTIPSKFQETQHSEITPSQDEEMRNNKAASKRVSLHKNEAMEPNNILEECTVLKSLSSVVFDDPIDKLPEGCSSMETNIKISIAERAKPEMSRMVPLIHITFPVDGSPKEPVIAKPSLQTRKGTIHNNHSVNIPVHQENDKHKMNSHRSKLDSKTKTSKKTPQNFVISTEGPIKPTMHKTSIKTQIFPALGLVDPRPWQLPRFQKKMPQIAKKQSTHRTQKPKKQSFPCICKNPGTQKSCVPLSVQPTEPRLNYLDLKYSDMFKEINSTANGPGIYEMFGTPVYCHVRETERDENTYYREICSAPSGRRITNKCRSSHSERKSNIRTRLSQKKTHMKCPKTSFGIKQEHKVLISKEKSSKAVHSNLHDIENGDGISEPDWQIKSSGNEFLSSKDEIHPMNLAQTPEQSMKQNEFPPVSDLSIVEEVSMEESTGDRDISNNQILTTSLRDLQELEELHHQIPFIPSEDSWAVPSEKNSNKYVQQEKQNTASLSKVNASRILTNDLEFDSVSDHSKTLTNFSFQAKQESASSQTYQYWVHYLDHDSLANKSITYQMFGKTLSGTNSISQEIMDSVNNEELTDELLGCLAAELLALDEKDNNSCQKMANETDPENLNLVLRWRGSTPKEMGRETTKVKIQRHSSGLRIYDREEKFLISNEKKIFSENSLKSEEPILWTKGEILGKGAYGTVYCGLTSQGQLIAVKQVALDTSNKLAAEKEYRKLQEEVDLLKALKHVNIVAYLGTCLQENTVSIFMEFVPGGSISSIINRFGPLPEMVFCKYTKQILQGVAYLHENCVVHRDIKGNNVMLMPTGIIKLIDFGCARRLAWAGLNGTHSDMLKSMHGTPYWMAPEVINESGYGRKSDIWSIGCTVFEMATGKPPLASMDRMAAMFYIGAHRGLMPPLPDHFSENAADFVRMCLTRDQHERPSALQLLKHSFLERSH

[9] = biological target: T2, Serine/threonine-protein kinase TAO3 (Homo sapiens) (UniProt Q9H2K8); assay: Selectivity interaction (KinomeScan (DiscoverX)) EUB0000305b TAOK3; conditions: CellTiter-Glo assay (Promega, proliferation in ACHN cells): IC50 = […] nM, https://www.sgc-ffm.uni-frankfurt.de/#!specificprobeove, at 100 nM
T2 sequence (whole entry): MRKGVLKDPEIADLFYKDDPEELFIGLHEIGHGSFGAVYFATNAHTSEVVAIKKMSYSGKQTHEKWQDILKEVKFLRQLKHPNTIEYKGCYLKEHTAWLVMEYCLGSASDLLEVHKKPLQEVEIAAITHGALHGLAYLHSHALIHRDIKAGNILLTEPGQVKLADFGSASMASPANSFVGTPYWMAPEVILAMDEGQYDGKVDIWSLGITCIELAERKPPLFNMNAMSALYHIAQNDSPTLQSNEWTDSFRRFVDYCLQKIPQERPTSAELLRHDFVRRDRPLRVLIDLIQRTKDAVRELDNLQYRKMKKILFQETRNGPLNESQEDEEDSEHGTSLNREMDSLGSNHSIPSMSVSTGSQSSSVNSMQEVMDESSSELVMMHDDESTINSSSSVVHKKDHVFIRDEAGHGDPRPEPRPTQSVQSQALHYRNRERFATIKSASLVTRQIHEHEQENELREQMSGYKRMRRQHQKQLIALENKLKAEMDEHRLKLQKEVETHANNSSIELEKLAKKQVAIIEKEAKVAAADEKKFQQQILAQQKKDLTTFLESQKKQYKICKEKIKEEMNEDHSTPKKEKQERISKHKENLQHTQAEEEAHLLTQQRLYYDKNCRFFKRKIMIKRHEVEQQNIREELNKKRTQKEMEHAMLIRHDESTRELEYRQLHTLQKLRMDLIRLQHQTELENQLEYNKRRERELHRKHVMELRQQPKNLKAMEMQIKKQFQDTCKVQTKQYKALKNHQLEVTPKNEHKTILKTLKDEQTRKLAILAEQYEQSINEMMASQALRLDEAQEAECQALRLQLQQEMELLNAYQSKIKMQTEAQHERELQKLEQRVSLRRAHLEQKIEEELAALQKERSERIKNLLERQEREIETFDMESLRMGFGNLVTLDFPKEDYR

[10] = biological target: T3, Serine/threonine-protein kinase 17A (Homo sapiens, UniProt Q9UEE5); assay: Selectivity interaction (KinomeScan (DiscoverX, competition-binding assay)) EUB0000305b STK17A
T3 sequence (Q9UEE5 whole entry): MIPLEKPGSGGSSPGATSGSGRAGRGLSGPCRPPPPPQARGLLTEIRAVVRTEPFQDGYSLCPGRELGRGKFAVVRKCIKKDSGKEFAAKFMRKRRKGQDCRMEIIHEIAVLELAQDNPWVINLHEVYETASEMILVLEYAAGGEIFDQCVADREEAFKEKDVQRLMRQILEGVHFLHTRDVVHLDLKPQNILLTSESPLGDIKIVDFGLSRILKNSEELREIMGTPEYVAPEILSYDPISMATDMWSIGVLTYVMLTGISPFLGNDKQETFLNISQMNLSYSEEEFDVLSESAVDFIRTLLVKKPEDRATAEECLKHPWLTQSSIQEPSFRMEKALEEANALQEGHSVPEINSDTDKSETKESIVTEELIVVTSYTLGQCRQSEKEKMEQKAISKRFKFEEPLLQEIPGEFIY

[11] = biological target: T3, Serine/threonine-protein kinase 17A; assay: Selectivity interaction (NanoBRET assay (HEK293T cells)) EUB0000305b STK17A

Chain of Phosphatidylinositol 4,5-bisphosphate 3-kinase catalytic subunit gamma isoform (P48736 whole entry, looked up, canonical isoform): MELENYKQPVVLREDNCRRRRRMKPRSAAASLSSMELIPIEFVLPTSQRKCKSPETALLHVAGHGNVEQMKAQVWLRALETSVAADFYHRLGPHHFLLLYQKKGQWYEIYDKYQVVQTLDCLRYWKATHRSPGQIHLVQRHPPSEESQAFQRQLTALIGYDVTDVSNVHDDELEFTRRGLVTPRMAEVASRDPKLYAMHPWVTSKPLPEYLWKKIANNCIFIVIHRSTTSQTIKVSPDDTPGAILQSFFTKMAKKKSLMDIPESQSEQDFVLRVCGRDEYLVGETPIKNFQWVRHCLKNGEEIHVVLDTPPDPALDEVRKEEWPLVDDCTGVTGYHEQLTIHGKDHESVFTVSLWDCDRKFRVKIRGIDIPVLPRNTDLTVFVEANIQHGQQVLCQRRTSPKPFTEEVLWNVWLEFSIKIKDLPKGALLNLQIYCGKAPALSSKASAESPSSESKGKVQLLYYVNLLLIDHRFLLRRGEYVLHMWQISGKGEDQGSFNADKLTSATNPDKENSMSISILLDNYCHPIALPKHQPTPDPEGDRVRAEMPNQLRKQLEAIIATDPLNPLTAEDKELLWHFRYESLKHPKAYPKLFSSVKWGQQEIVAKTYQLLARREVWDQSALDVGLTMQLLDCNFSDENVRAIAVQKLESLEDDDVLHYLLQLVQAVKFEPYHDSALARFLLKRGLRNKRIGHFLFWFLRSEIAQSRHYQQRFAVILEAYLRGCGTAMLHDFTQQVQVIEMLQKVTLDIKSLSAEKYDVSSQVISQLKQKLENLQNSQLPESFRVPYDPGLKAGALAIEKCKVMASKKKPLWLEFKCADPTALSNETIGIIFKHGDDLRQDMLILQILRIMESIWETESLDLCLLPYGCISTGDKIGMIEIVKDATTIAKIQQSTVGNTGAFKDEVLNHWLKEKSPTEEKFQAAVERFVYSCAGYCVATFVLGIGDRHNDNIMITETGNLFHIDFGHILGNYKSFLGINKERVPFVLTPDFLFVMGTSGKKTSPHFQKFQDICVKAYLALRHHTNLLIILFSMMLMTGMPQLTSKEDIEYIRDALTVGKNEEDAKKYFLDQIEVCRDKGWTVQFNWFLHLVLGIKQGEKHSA

- % of control (Aurora kinase B): 9.9%
SMILES: CN(c1ccnc(CNc2nc(Nc3ccc4c(c3)CC(=O)N4)ncc2C(F)(F)F)n1)S(C)(=O)=O [PF-00911705]

- Kd [8]: 9.6 nM
- % of control [9]: 41%
- Kd [10]: 74 nM
- IC50 [11]: > 20000 nM
SMILES: C[C@H](c1ccnc(Nc2nc3ccc(-c4cc(N(C)C)ncn4)cc3[nH]2)c1)N1CCN(C(=O)CC(F)(F)F)CC1 [BAY-985]

Second part, the molecule before the results:

SMILES: CN1C(=O)c2sccc2N(C)c2nc(Nc3ccc(S(N)(=O)=O)cc3)ncc21
- % of control [1]: 0.15%
- % of control [2]: 8%
- % of control [3]: 2%

SMILES: CCOc1cn(-c2ccc(F)cc2C)nc1C(=O)Nc1ccc(Oc2ccnc3cc(OC)c(OC)cc23)c(F)c1
- % of control [4]: < 10%

SMILES: COc1cc2ncn(-c3cc(OCc4ccccc4C(F)(F)F)c(C(N)=O)s3)c2cc1OC [GW843682X]
- % of control [5]: 1.4%

SMILES: CC[C@@H]1C(=O)N(C)c2cnc(Nc3ccc(C(=O)NC4CCN(C)CC4)cc3OC)nc2N1C1CCCC1
- % of control [6]: 60%
- % of control [7]: 0.5%
